The subject of one assay is JAK/STAT3 pathway. The assay can be described thus: Signaling pathway analysis in SNI model (Western blot): JAK/STAT3. It is filed as in vivo, Sprague-Dawley rats. To be noted: 4 weeks after nerve injury. As to the method: (§1) To determine through which signaling pathway YJ102 inhibited a neuroinflammatory response, there was analyzed increased expression and activation of histone demethylase JMJD3 and expression changes of factors associated with JAK/STAT3 pathway, mTOR pathway, and TRPM7-mediated pathway, which were known as important regulatory mechanisms and epigenetic regulators mediating the neuroinflammatory response, in the tissues of the SNI animal model 4 weeks after nerve injury.
On the technique in general: In western blotting, separated proteins are transferred to a membrane and probed.

The subject of a further assay is TRPM7. Put plainly: Signaling pathway analysis in SNI model (Western blot): TRPM7 expression. It is filed as in vivo, Sprague-Dawley rats. The settings on record: 4 weeks after nerve injury. As to the method: as §1
In assay [1] the test system is traumatic spinal cord injury (SCI) model. The assay can be described thus: Urinary function analysis in SCI model (residual urine volume, UBFS, bladder size and weight). It is filed as in vivo, Sprague-Dawley rats. The method, then:
To be used as a central nerve injury animal model, a traumatic spinal cord injury (SCI) model was prepared (FIG. 1A). Specifically, 230 to 250 g of male adult Sprague-Dawley rats were anesthetized by intraperitoneal injection of chloral hydrate (500 mg/kg), and then the back and neck regions were shaved, and the spinal cord under the back and neck regions was exposed without damaging the dura mater, and a laminectomy was performed at T9 to T10 levels. To stabilize the spine, the spinous processes of T8 and T11 were fixed, and the spine was damaged by free-falling a 10 g weight from a height of 25 mm using an NYU impactor onto the back surface of the exposed spinal cord and then the rats were left in a temperature and humidity-controlled chamber overnight while covering the muscles and skin. After surgery, the rats were subcutaneously injected with a supplement solution (5 ml, lactated ringer) and injected with antibiotics (gentamicin, 5 mg/kg, intramuscular injection) once daily for 5 days. The body weight, remaining food, and the weight of water were confirmed and recorded for all animals, and the bladder was emptied twice daily by passive bladder massage until reflex micturition was established. At this time, a Sham group was a group that was subjected to only laminectomy without damage.
In order to confirm the effect of YJ102 (Chemical Formula 1), a compound of the present disclosure, on urinary disturbances caused by spinal cord injury, immediately after preparing the traumatic spinal cord injury (SCI) model (FIG. 1A) prepared in Example 1 above, YJ102 was dissolved in DMSO, methyl pyrrolidinone, and water (1 : 1.5 : 1) and administered intraperitoneally at 5 mg/kg, and then intraperitoneally administered at 24-hour intervals for 7 days from the next day. Thereafter, the effect of improving bladder functions was analyzed through a residual urine volume test and a urinary bladder function score (UBFS). At this time, a Vehicle group was administered with the same amount of a solution of DMSO, methyl pyrrolidinone, and water. Specifically, in order to determine the amount of urine remaining in the bladder after spinal cord injury, bladder extrusion was performed twice a day by applying pressure to the central bottom portion of the lower abdomen using the index and middle fingers to empty the bladder, and the expelled urine was collected in a catheter and its volume was recorded. […]

For another assay, the system named is Raw 264.7. The assay can be described thus: proNGF production in LPS-stimulated macrophage cell line. It is filed as cell-based. To be noted: Raw 264.7 stimulated with 1 µg/ml of LPS; YJ102 treated 30 minutes before LPS. As to the method:
In order to determine whether YJ102 affected the production of proNGF as a ligand of p75, the expression of proNGF in the bladder was confirmed by RT-PCR, Western blot analysis, and immunofluorescence staining. In addition, for further verification, a macrophage cell line Raw 264.7 (Korea Cell Line Bank, Seoul, Korea) was stimulated with 1 µg/ml of LPS, and the effect of YJ102 on the production of proNGF was investigated. At this time, YJ102 was dissolved in DMSO and treated 30 minutes before LPS treatment.

For assay [2], the system named is IMQ psoriasis animal model. The assay can be described thus: PASI scores (erythema, scaling) in IMQ psoriasis animal model. The format is in vivo, C57BL/6 mouse. To be noted: 5 mg/kg intraperitoneally on Day 2, Day 3, Day 4, vs Vehicle group. As to the method: Psoriasis caused by excessive production of skin cells was a chronic skin disease associated with various factors, including autoimmune diseases, and its symptoms included red and thickened skin and abnormally occurring scaling. […] Specifically, the back region of a C57BL/6 mouse (male, 18 to 20 g, 8 weeks) (Daehan Biolink, Eumseong, Korea) was shaved to remove hair, and then applied with IMQ cream (83 mg/day) (5%) for consecutive 5 days from Day 0 to Day 4 to induce psoriasis-like skin inflammation, and a normal control mouse (Sham) was applied with Vaseline cream (FIG. 16A).
In order to confirm the effect of YJ102 (Chemical Formula 1), a compound of the present disclosure, on psoriasis, YJ102 dissolved in DMSO, methyl pyrrolidinone, and water (1 : 1.5 : 1) was administered intraperitoneally (5 mg/kg) for a total of 3 days on Day 2, Day 3, and Day 4, and the Vehicle group was administered in the same amount of a solution of DMSO, methyl pyrrolidinone, and water (1 : 1.5 : 1) (FIG. 16A). To assess daily skin changes, PASI scores were used for erythema and scaling. The PASI score was evaluated as a severity scale of 0 to 4, in which 0 meant none, 1 meant mild, 2 meant moderate, 3 meant severe, and 4 meant very severe. (PASI Reference: Yashpal Manchanda, Abhishek De, Sudip Das, and Disha Chakraborty. Disease Assessment in Psoriasis. Indian J Dermatol. 2023 May-Jun; 68 (3): 278-281.)

These results are taken from patent EP4699605A1, “USE OF NOVEL COMPOUND FOR TREATING INTRACTABLE DISEASES” (YJ Cerapeutics Inc., priority 2023, dated 2024).

Regarding `CCc1ccc(N(C(=O)COC)c2nc3cc(Cl)ccc3o2)cc1` [YJ102], in the assay on JAK/STAT3 pathway, the “phosphorylation of JAK2” value is recorded as “significantly reducing” and the “phosphorylation of STAT3” value is “significantly reducing”. In the assay with TRPM7, the “expression of TRPM7” value is “inhibited”. For the same compound, in assay [1] (5 mg/kg intraperitoneally), the bladder size entry is listed as “significantly reduced” and the bladder weight entry is listed as “significantly reduced”. Moreover, the residual urine volume entry in assay [1] (5 mg/kg intraperitoneally at 24-hour intervals, vs Veh group, from the first day of administration) is listed as “significantly reduced”. For the same compound, the “bladder function restoration using the UBFS” value in assay [1] (5 mg/kg intraperitoneally, vs Vehicle group on day 3 and day 7 after spinal cord injury) is given as “significantly increased”. The “mRNA and protein expression of proNGF” value in the assay on Raw 264.7 is on record as “significantly inhibited”. Further, in assay [2], the “degree of erythema (PASI score)” value is listed as “significantly lower” and the “degree of scaling (PASI score)” value was “significantly lower”.
